Test results reported in ChEMBL document CHEMBL4342440, “Potential cytotoxic and anti-metastatic effects of berberine on gynaecological cancers with drug-associated resistance” (Eur J Med Chem, 2020).
pIC50: −log10 of the molar value.

How the values were obtained:
HeLa [1] = experiment: Cytotoxicity against human HeLa cells measured after 48 hrs by SRB assay; assay type: functional, cell-based
Ca-Ski [2] = experiment: Cytotoxicity against human CaSki cells measured after 48 hrs by SRB assay; assay type: functional, cell-based
HeLa [3] = experiment: Cytotoxicity against human HeLa cells measured after 48 hrs by MTT assay; assay type: functional, cell-based
Ca-Ski [4] = experiment: Cytotoxicity against human CaSki cells measured after 48 hrs by MTT assay; assay type: functional, cell-based
[5] = Drug excretion in rat urine; assay type: ADME, tissue-based; settings: read-out: Drug excretion
HeLa [6] = experiment: Induction of apoptosis in human HeLa cells measured at 20 mg/L after 48 hrs relative to control; assay type: functional
HeLa [7] = experiment: Induction of apoptosis in human HeLa cells measured at 40 mg/L after 48 hrs relative to control; assay type: functional
Vero = experiment: Cytotoxicity against African green monkey Vero cells measured after 48 hrs by MTT assay; assay type: cell-based; settings: Chlorocebus sabaeus
[8] = Drug excretion in rat bile; assay type: ADME, tissue-based; settings: read-out: Drug excretion
HeLa 229 = experiment: Cytotoxicity against human HeLa 229 cells measured after 48 hrs by MTT assay; assay type: functional, cell-based; settings: HeLa 229, 48 h
[9] = Drug excretion in rat feces; assay type: ADME, tissue-based; settings: faeces, read-out: Drug excretion

Row | Structure (SMILES) | IC50 (HeLa [1]) | IC50 (Ca-Ski [2]) | IC50 (HeLa [3]) | further results
1 | COc1cc(CN2CCN(c3ccc(C)cc3C)CC2)c2cc3[n+](cc2c1O)CCc1cc2c(cc1-3)OCO2.[Cl-] | 4.35 to 6.32 µg/mL | 3.41 to 6.08 µg/mL |  | 
2 | COc1cc(CN2CCN(c3ccc(Cl)cc3)CC2)c2cc3[n+](cc2c1O)CCc1cc2c(cc1-3)OCO2.[Cl-] |  |  | < 6 µg/mL | IC50 (Ca-Ski [4]): < 6 µg/mL
3 | COc1cc(CN2CCN(c3ccc(F)cc3F)CC2)c2cc3[n+](cc2c1O)CCc1cc2c(cc1-3)OCO2.[Cl-] | 4.35 to 6.32 µg/mL | 3.41 to 6.08 µg/mL |  | 
4 | COc1cc(CN2CCN(c3ccccc3Cl)CC2)c2cc3[n+](cc2c1O)CCc1cc2c(cc1-3)OCO2.[Cl-] |  |  | < 6 µg/mL | IC50 (Ca-Ski [4]): < 6 µg/mL
5 | COc1ccc(N2CCN(Cc3cc(OC)c(O)c4c[n+]5c(cc34)-c3cc4c(cc3CC5)OCO4)CC2)c(OC)c1.[Cl-] | 4.35 to 6.32 µg/mL | 3.41 to 6.08 µg/mL |  | 
6 | COc1cc(CN2CCN(c3ccc(OC(F)(F)F)cc3)CC2)c2cc3[n+](cc2c1O)CCc1cc2c(cc1-3)OCO2.[Cl-] |  |  | < 6 µg/mL | IC50 (Ca-Ski [4]): < 6 µg/mL
7 | COc1cc(CN2CCN(c3ccccc3F)CC2)c2cc3[n+](cc2c1O)CCc1cc2c(cc1-3)OCO2.[Cl-] |  |  | < 6 µg/mL | IC50 (Ca-Ski [4]): < 6 µg/mL
8 | COc1cc(CN2CCN(c3ccc(C)cc3)CC2)c2cc3[n+](cc2c1O)CCc1cc2c(cc1-3)OCO2.[Cl-] |  |  | < 6 µg/mL | IC50 (Ca-Ski [4]): < 6 µg/mL
9 | COc1cc(CN2CCN(c3cccc(Cl)c3)CC2)c2cc3[n+](cc2c1O)CCc1cc2c(cc1-3)OCO2.[Cl-] |  |  | < 6 µg/mL | IC50 (Ca-Ski [4]): < 6 µg/mL
10 | COc1cc(CN2CCN(c3ccccc3[N+](=O)[O-])CC2)c2cc3[n+](cc2c1O)CCc1cc2c(cc1-3)OCO2.[Cl-] |  |  | < 6 µg/mL | IC50 (Ca-Ski [4]): < 6 µg/mL
11 | COc1cc(CN2CCN(c3ccc(C(F)(F)F)cc3)CC2)c2cc3[n+](cc2c1O)CCc1cc2c(cc1-3)OCO2.[Cl-] |  |  | < 6 µg/mL | IC50 (Ca-Ski [4]): < 6 µg/mL
12 | COc1cc(CN2CCN(c3ccc(F)cc3)CC2)c2cc3[n+](cc2c1O)CCc1cc2c(cc1-3)OCO2.[Cl-] |  |  | < 6 µg/mL | IC50 (Ca-Ski [4]): < 6 µg/mL
13 | COc1cc(CN2CCN(c3cccc(Cl)c3Cl)CC2)c2cc3[n+](cc2c1O)CCc1cc2c(cc1-3)OCO2.[Cl-] | 4.35 to 6.32 µg/mL | 3.41 to 6.08 µg/mL |  | 
14 | COc1cc(CN2CCN(c3ccc([N+](=O)[O-])cc3)CC2)c2cc3[n+](cc2c1O)CCc1cc2c(cc1-3)OCO2.[Cl-] |  |  | < 6 µg/mL | IC50 (Ca-Ski [4]): < 6 µg/mL
15 | COc1ccc2cc3[n+](cc2c1OCCCCCNNc1nc2ccccc2s1)CCc1cc2c(cc1-3)OCO2.[Cl-] | 5.47 µg/mL | 5.31 µg/mL |  | 
16 | COc1ccc2nc(NCCCCCOc3c(OC)ccc4cc5[n+](cc34)CCc3cc4c(cc3-5)OCO4)sc2c1.[Cl-] | 5.47 µg/mL | 5.31 µg/mL |  | 
17 | COc1cc(CN2CCN(c3ccc(Cl)c(Cl)c3)CC2)c2cc3[n+](cc2c1O)CCc1cc2c(cc1-3)OCO2.[Cl-] | 4.35 to 6.32 µg/mL | 3.41 to 6.08 µg/mL |  | 
18 | COc1ccc2cc3[n+](cc2c1OCCCCCNc1nc2ccccc2s1)CCc1cc2c(cc1-3)OCO2.[Cl-] | 5.47 µg/mL | 5.31 µg/mL |  | 

Row | Structure (SMILES) | IC50 (HeLa [1]) | IC50 (Ca-Ski [2]) | IC50 (HeLa [3]) | further results
19 | COc1ccc2cc3[n+](cc2c1OCCCCCNc1nc2ccc(Cl)cc2s1)CCc1cc2c(cc1-3)OCO2.[Cl-] | 5.47 µg/mL | 5.31 µg/mL |  | 
20 | COc1ccc2cc3[n+](cc2c1OCCCCCNc1nc2ccc(C(=O)O)cc2s1)CCc1cc2c(cc1-3)OCO2.[Cl-] | 5.47 µg/mL | 5.31 µg/mL |  | 
21 | COc1cc(CN2CCN(c3cc(Cl)cc(Cl)c3)CC2)c2cc3[n+](cc2c1O)CCc1cc2c(cc1-3)OCO2.[Cl-] | 4.35 to 6.32 µg/mL | 3.41 to 6.08 µg/mL |  | 
22 | COc1ccc2cc3[n+](cc2c1OCCCCCNc1nc2ccc(C)cc2s1)CCc1cc2c(cc1-3)OCO2.[Cl-] | 5.47 µg/mL | 5.31 µg/mL |  | 
23 | COc1ccc2cc3[n+](cc2c1OCCCCCNc1nc2ccc(C(F)(F)F)cc2s1)CCc1cc2c(cc1-3)OCO2.[Cl-] | 5.47 µg/mL | 5.31 µg/mL |  | 
24 | COc1cc(CN2CCN(c3cccc(C)c3C)CC2)c2cc3[n+](cc2c1O)CCc1cc2c(cc1-3)OCO2.[Cl-] | 4.35 to 6.32 µg/mL | 3.41 to 6.08 µg/mL |  | 
25 | COc1cc(CN2CCN(c3cccc(F)c3F)CC2)c2cc3[n+](cc2c1O)CCc1cc2c(cc1-3)OCO2.[Cl-] | 4.35 to 6.32 µg/mL | 3.41 to 6.08 µg/mL |  | 
26 | COc1ccc2cc3[n+](cc2c1OCCCCCNc1nc2c(F)cc(F)cc2s1)CCc1cc2c(cc1-3)OCO2.[Cl-] | 5.47 µg/mL | 5.31 µg/mL |  | 
27 | COc1ccc2cc3[n+](cc2c1OCCCCCNc1nc2ccc(C#N)cc2s1)CCc1cc2c(cc1-3)OCO2.[Cl-] | 5.47 µg/mL | 5.31 µg/mL |  | 
28 | COc1ccc2cc3[n+](cc2c1OCCCCCNc1nc2ccc(F)cc2s1)CCc1cc2c(cc1-3)OCO2.[Cl-] | 5.47 µg/mL | 5.31 µg/mL |  | 
29 | COc1cc(CN2CCN(c3ccc(Cl)cc3Cl)CC2)c2cc3[n+](cc2c1O)CCc1cc2c(cc1-3)OCO2.[Cl-] | 4.35 to 6.32 µg/mL | 3.41 to 6.08 µg/mL |  | 
30 | COc1ccc2cc3[n+](cc2c1OCCCCCNc1nc2ccc(I)cc2s1)CCc1cc2c(cc1-3)OCO2.[Cl-] | 5.47 µg/mL | 5.31 µg/mL |  | 
31 | COc1ccc2cc3[n+](cc2c1OCCCCCNc1nc2ccc(Br)cc2s1)CCc1cc2c(cc1-3)OCO2.[Cl-] | 5.47 µg/mL | 5.31 µg/mL |  | 
32 | CCOc1ccc2nc(NCCCCCOc3c(OC)ccc4cc5[n+](cc34)CCc3cc4c(cc3-5)OCO4)sc2c1.[Cl-] | 5.47 µg/mL | 5.31 µg/mL |  | 
33 | COc1ccc2cc3[n+](cc2c1OCCCCCNc1nc2ccc([N+](=O)[O-])cc2s1)CCc1cc2c(cc1-3)OCO2.[Cl-] | 5.47 µg/mL | 5.31 µg/mL |  | 
34 | COc1ccc2cc3[n+](cc2c1OC)CCc1cc2c(cc1-3)OCO2 [BERBERINE] |  |  | 12.1 µg/mL | dose excreted [5]: 0.0939%; Activity (HeLa [6]): 16.7%; Activity (HeLa [7]): 29.6%; IC50 (Vero): 71.1 µg/mL; dose excreted [8]: 22.8%; pIC50 (HeLa 229): 4.37; dose excreted [9]: 22.7%
35 | COc1c(O)ccc2cc3[n+](cc12)CCc1cc2c(cc1-3)OCO2.[Cl-] [THALIFENDINE] |  |  |  | dose excreted [8]: 83%
